Reference: patent US9693974B2, “Antibacterial and antifungal biphenylyl compounds” (CHRISTIAN-ALBRECHTS-UNIVERSITY OF KIEL, priority 2010, dated 2017)
Values after ≈ are worked out from the molar mass of the structure shown. Structures can show the parent of a compound that is named as a salt. Where two headings read alike, the source gives them in different places. Values belong to the compound of their own block, whether it stands above or below them.

Tests used:
Test in all cases: MIC, Bouillon-microdilution method (CLSI M07-A8)
Type in all cases: cell-based
[1] = system: Aspergillus fumigatus ATCC 9197; conditions: ATCC9197, read-out: MIC values A.f.
Experimental: (§1) The respective determination is valid if in the growth control (DMSO and medium) a distinct turbidity is observed.
(§2) The minimum inhibitory concentrations of the substances of the present inventions against various infectious germs, i.a. against methicillin-resistant Staphylococcus aureus were determined with the Bouillon-microdilution method in accordance with the procedure M07-A8 of the Clinical and Laboratory Standards Institute (Pennsylvania, USA).
(§3) (Source: German Collection of Microorganisms and Cell Cultures, Braunschweig) Enterococcus hirae ATCC 10541, Staphylococcus epidermidis ATCC 12228, Staphylococcus aureus ATCC 6538, methicillin-resistant Staphylococcus aureus ATCC 33592, Bacillus cereus ATCC 11778, Candida albicans ATCC 10231, Aspergillus niger ATCC 16404, Aspergillus fumigatus ATCC 9197.
(§4) In sterile tubes with titled agar, bacteria with casein peptone soy flour peptone agar (Merck, Art. No. 1.05458.05), incubation 18-24 h at 34° C., fungi with Sabouraud 4% Glucose Agar (Merck 1.05438.05), incubation Candida albicans 18-24 h at 34° C., mold fungous 7 days at 22° C.
(§5) Suspensions are produced on titled agar by floating with 0.9% sterile NaCl solution. The turbidity is adjusted photometrically by dilution according to the turbidity of the Mc Farland-standard 0.5.
(§6) Subsequently, the bacterial suspensions are diluted in the ratio of 1:10, the Pi-suspension of the fungi remains undiluted.
(§7) The number of the germs in the inocula is adjusted so that there are approximately 5×10^5 colony forming units per milliliter after inoculation of the test wells.
(§8) The amount of a substance to be tested in a trial is weighed out on a microbalance with an Eppendorf reaction vessel and dissolved in an appropriate volume of dimethyl sulfoxide so that the concentration of the resulting solution corresponds to the 21 times highest final test concentration. The stock solution is subsequently diluted in a serial in a ratio respectively 1 ad 2 with DMSO resulting in seven different concentrations in the wells of a predilution plate. In the eighth well only DMSO is pipetted.
(§9) In each of the 96 wells of a test plate 95 μl sterile Mueller Hinton II medium (Cation adjusted, BBL™ Ref. 212322) for bacteria and sterile Sabouraud 2% glucose medium (DIFCO™ Ref 238230) for fungis are added with an eight-channel pipette (Socorex 50-200 μL). 5 μL of the solution to be tested are pipetted in each of the test wells of the plate (8-channel pipette, Eppendorf-Research, 5-10 μL). They are transferred in this way from the pre-dilutions that in the horizontal row A the highest concentration and respectively a half reduced concentration of the substance to be tested until row G and in row H only DMSO is pipetted. Subsequently, 5 μL of the inocula are pipetted in the test wells using an eight-channel pipette. In one test at least two, maximum four rows are inoculated with the same substance and the same germs. The concentrations of the test substance are each 128 μg/mL to 2 μg/mL.
(§10) The prepared plates are converted to a microtiter plate reader (Anthos ht111) which is connected to a printer. In this device, the plates are shaken for 60 seconds with high frequency before each measurement and the absorption of the probes is measured at the wavelength of light of 590 nm.
(§11) After determination of the initial values the plates are incubated at 34° C. for 16 to 20 h for bacteria and Candida albicans, and 68 to 72 h at 34° C. for mould fungis.
(§12) Following this the micro titer plates are measured again as described above.
(§13) The minimum inhibitory concentration is the lowest concentration of the tested substance which is able to inhibit the complete growth of the particular test organism, i.e. where after incubation no turbidity is measurable. The particular determination is valid when in the growth control (DMSO and medium) a distinct turbidity is observed.

[2] = system: Aspergillus niger ATCC 16404; conditions: ATCC16404, read-out: MIC values A.n.
Experimental: as §1, §2, §3, §4, §5, §6, §7, §8, §9, §10, §11, §12, §13

[3] = system: methicillin-resistant Staphylococcus aureus ATCC 33592; conditions: for MIC: ATCC 33592 / MRSA, read-out: MIC values MRSA
Experimental: as §1, §2, §3, §4, §5, §6, §7, §8, §9, §10, §11, §12, §13

[4] = system: Staphylococcus aureus ATCC 6538; conditions: for MIC: Staphylococcus aureus
Experimental: as §1, §2, §3, §4, §5, §6, §7, §8, §9, §10, §11, §12, §13

[5] = system: Staphylococcus epidermidis ATCC 12228; conditions: ATCC12228, Staphylococcus epidermis, read-out: MIC values S.e.
Experimental: as §1, §2, §3, §4, §5, §6, §7, §8, §9, §10, §11, §12, §13

[6] = system: Enterococcus hirae ATCC 10541; conditions: ATCC10541, read-out: MIC values E.h.
Experimental: as §1, §2, §3, §4, §5, §6, §7, §8, §9, §10, §11, §12, §13

Pseudomonas aeroginosa = conditions: read-out: MIC values P.a.
Experimental: as §1, §2, §4, §5, §6, §7, §8
as §9, with “Subsequently, 5 μL of the inocula are pipetted in the test wells using an eight-channel pipette. In one test at least two, maximum four rows are inoculated with the same substance and the same germs. The concentrations of the test substance are each 128 μg/mL to 2 μg/mL.” left out
(§14) The prepared plates are converted to a microtiter plate reader (Anthos ht111) which is connected to a printer. In this device, the plates are shaken for 60 seconds with high frequency before each measurement and the absorption of the probes is measured at the wavelength of light of 590 nm. […]
(§15) Following this the micro titer plates are measured again as described above. […]

Escherichia coli = conditions: read-out: MIC values E.c.
Experimental: as §1, §2, §4, §5, §6, §7, §8
as §9, with “Subsequently, 5 μL of the inocula are pipetted in the test wells using an eight-channel pipette. In one test at least two, maximum four rows are inoculated with the same substance and the same germs. The concentrations of the test substance are each 128 μg/mL to 2 μg/mL.” left out
as §14, §15

[7] = system: Candida albicans ATCC 10231
Experimental: as §1, §2, §3, §4, §5, §6, §7, §8, §9, §10, §11, §12, §13

[8] = methicillin-resistant Staphylococcus aureus, number of tests in brackets
[9] = ATCC6538, number of tests in brackets, rounded average of logarithmic endpoints, read-out: MIC values S.a.

Compound: CN(C)CCCCc1ccc(-c2ccc(Br)cc2)cc1 [GG28, 4-bromo-4′-(4-dimethylaminobutyl) biphenyl hydrochloride]
- MIC ([3]; Staphylococcus aureus): 18 µg/mL
- MIC ([4]; ATCC6538, read-out: MIC values S.a.): 13 µg/mL
- MIC ([7]; ATCC10231, read-out: MIC values C.a. (Yeast)): 8 µg/mL

Compound: CN[C@H](CC(C)C)C(=O)N[C@H]1C(=O)N[C@@H](CC(N)=O)C(=O)N[C@H]2C(=O)N[C@H]3C(=O)N[C@H](C(=O)N[C@H](C(=O)O)c4cc(O)cc(O)c4-c4cc3ccc4O)[C@H](O)c3ccc(c(Cl)c3)Oc3cc2cc(c3O[C@@H]2O[C@H](CO)[C@@H](O)[C@H](O)[C@H]2O[C@H]2C[C@](C)(N)[C@H](O)[C@H](C)O2)Oc2ccc(cc2Cl)[C@H]1O [Vancomycin, reference compound]
- MIC ([3]; Staphylococcus aureus): < 2 µg/mL

Compound: CN(C)[C@@H]1C(=O)C(C(N)=O)=C(O)[C@@]2(O)C(=O)C3=C(O)c4c(O)cccc4[C@@](C)(O)[C@H]3C[C@@H]12 [Tetracyclin, reference compound]
- MIC values MRSA [3, 8]: 64 µg/mL (≈ 144 µM)

Compound: CN(C)CCC(=O)c1ccc(-c2ccc(Br)cc2)cc1.Cl [GG20-3, reference compound]
- MIC [3, 8]: 32 µg/mL
- MIC [4, 9]: 32 µg/mL
- MIC [5]: 16 µg/mL
- MIC (Pseudomonas aeroginosa): > 64 µg/mL
- MIC (Escherichia coli): > 64 µg/mL

More lines, now with the values ahead:

- MIC [1]: 8 µg/mL
- MIC [2]: 64 µg/mL
- MIC [3, 8]: 8 µg/mL
- MIC [4, 9]: 4 to 8 µg/mL
- MIC [5]: 4 µg/mL
- MIC [6]: 16 µg/mL
- MIC (Pseudomonas aeroginosa): > 64 µg/mL
- MIC (Escherichia coli): > 64 µg/mL
Compound: CN(C)CCCC(=O)c1ccc(-c2ccc(Br)cc2)cc1.Cl [GG20-4, 4′-(4-bromophenyl)-4-dimethylaminobutyrophenone-hydrochloride]

- MIC [3, 8]: 16 µg/mL
- MIC [4, 9]: 16 µg/mL
- MIC ([7]; ATCC10231, Candida albicans, number of tests in brackets, read-out: MIC values C.a. (Yeast)): 8 µg/mL
Compound: CN(C)CCCCC(=O)c1ccc(-c2ccc(Br)cc2)cc1.Cl [GG20-5]

- MIC value / growth inhibition of Staphylococcus aureus (result in words) ([4]; also after addition of higher concentrations): did not inhibit the growth
Compound: Cl.O=C(CCCN1CCN(c2ccccc2)CC1)c1ccc(-c2ccc(Br)cc2)cc1 [4′-(4-bromophenyl)-4-(N-phenylpiperazino)butyrophenone-hydrochloride, reference compound]
